# Measured values published in patent publication US20040157913A1, “Kappa opiate agonists for the treatment of bladder diseases” (priority 2001, published 2004).
# How the values were obtained:
# Type in all cases: in vivo
# [1] = Urine excretion in rats with increased urine excretion provoked by intraperitoneal saline (Lipschitz model); conditions: rats fasted overnight, 100 ml/kg physiological saline i.p., urine collected over 6 hours, dose 100 mg/kg; increase as a function of dose
# Experimental: (§1) A model for measuring the effect on urine excretion is described in Lipschitz et al., J. Pharmacol. Exp. Ther. 1943; 79: 97-110. The substance to be investigated is given to rats who had previously been denied food overnight while being given free access to water. Increased urine excretion is provoked by simultaneous intraperitoneal injection of 100 ml/kg of physiological saline solution. Immediately after administration of the substance, the bladder was emptied by gentle massage of the abdomen above the bladder. The rats are subsequently kept in metabolism cages in which the urine is collected over a period of 6 hours.
# [2] = Urine excretion in normal rats (without induction of increased urine excretion); conditions: no saline induction, dose 30 mg/kg po, increase as a function of dose
# Experimental: as §1
# The effect on urine excretion in normal rats is tested analogously (i.e. without induction of increased urine excretion, see above). N-Methyl-N-[(1S)-1-phenyl-2-((3S)-3-hydroxypyrrolidin-1-yl)ethyl]-2,2-diphenylacetamide increases urine excretion as a function of dose, with 5.5 times the amount of urine being excreted at only 30 mg/kg po.
# [3] = tested on: irritable bladder in female apes; test: Animal model for irritable bladder induced by direct infusion of acetone into the bladder (Ghoniem et al.); conditions: doses of 3, 10 and 30 mg/kg
# Experimental: The classical animal model for irritable bladder is described in Ghoniem et al., Neurourol. Urodyn. 1995; 14: 657-65. In female apes, irritable bladder is induced by direct infusion of acetone into the bladder. The animals are kept in metabolism cages designed for continuous monitoring of miction (urination) of the animals. The frequency, emptying volumes and flow rate of the urine are measured continuously via urine flow meters. […] Furthermore, considerable changes in bladder physiology are observed in the first week after acetone infusion: the bladder performance, measured in ml/cm, drops by almost 95%. The emptying behaviour also changes considerably, with the frequency of emptying increasing greatly with the picture of frequent dribbling and at the same time with an emptying volume reduced by about 70%. […] These changes in behaviour observed in apes are consistent with the clinical picture of considerable discomfort and pain.
smiles,measurement,setting,value
"CN(C(=O)C(c1ccccc1)c1ccccc1)[C@H](CN1CC[C@H](O)C1)c1ccccc1 [N-methyl-N-[(1S)-1-phenyl-2-((3S)-3-hydroxypyrrolidin-1-yl)ethyl]-2,2-diphenylacetamide]",amount of urine excreted (multiple),[1],twice the amount of urine
same,amount of urine excreted (multiple),[2],5.5 times
same,effect on bladder function,[3],normalises bladder function in a dose-dependent manner
